Series [1] concerns Puccinia recondita f. sp. Tritici. The experiment in a line: Fungicidal activity against Puccinia recondita f. sp. Tritici / wheat / leaf disc preventative (brown rust). It is filed as in vivo. To be noted: foliar, 200 ppm in the applied formulation, wheat leaf segments cv. Kanzler, inoculated 1 day after application, vs untreated control, read-out: disease control. The method, boiled down:
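Wheat cv. Kanzler leaf segments on agar sprayed with diluted compound, inoculated with brown rust spores 1 day later. Kept at 19° C., 75% rh, 12 h light/dark; percent disease control versus untreated segments scored 7 to 9 days after application, compounds tested at 200 ppm.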

For another series, the system named is Phakopsora pachyrhizi. In words: Fungicidal activity against Phakopsora pachyrhizi / soybean / leaf disc preventative (Asian soybean rust). The format is in vivo. To be noted: foliar, 200 ppm in the applied formulation, soybean leaf disks, vs untreated control, read-out: disease control. In outline:
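Preventative test: compound sprayed onto soybean leaf discs one day before spore inoculation of the lower leaf face. Incubation at 20 °C and 75% rh, first 24-36 h in darkness, then a 12 h light cycle. Disease control versus untreated discs read 12-14 days after application.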

The test system of series [2] is Glomerella lagenarium (Colletotrichum lagenarium). In words: Fungicidal activity against Glomerella lagenarium (Colletotrichum lagenarium) liquid culture / cucumber / preventative (anthracnose). It is filed as cell-based. Conditions: Colletotrichum orbiculare, 72 h; 20 ppm in the applied formulation; liquid culture (PDB), growth inhibition measured photometrically 3 to 4 days after application; vs untreated control; read-out: disease control. The method, boiled down:
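PDB broth seeded with cryo-stored conidia, added onto compound (DMSO solution) in 96-well plates; 24° C.; photometric growth read at 3–4 d post-application; % inhibition vs untreated check.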

Series [3] deals with Puccinia recondita f. sp. Tritici. In words: Fungicidal activity against Puccinia recondita f. sp. Tritici / wheat / leaf disc curative (brown rust). The format is in vivo. To be noted: foliar, 24 h, 200 ppm in the applied formulation, wheat leaf segments cv. Kanzler, applied 1 day after inoculation, vs untreated control, read-out: disease control. In outline: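 Curative leaf-segment test, cv. Kanzler: spore inoculation, dark storage 19° C/75% RH, compound spray 1 day post-inoculation. Then 12 h light/12 h dark, 19° C, 75% RH. Read-out: % disease control vs untreated check, 6–8 d after application.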

Each structure is given as a SMILES string. Where only a bound is given, the exact number is not on record here.

As usually defined, the melting point is the temperature, or range, at which the solid turns liquid.

With `CON=C(C)CNC(=O)c1ccc(-c2noc(C(F)(F)F)n2)cc1F` [Compound 1.157, 2-fluoro-N-(2-methoxyimino-propyl)-4-[5-(trifluoromethyl)-1,2,4-oxadiazol-3-yl]benzamide], the melting point was 122 to 124 °C. Also, in series [1], the pest or weed control at 200 ppm was at least 80%. For the same molecule, the pest or weed control at 200 ppm with Phakopsora pachyrhizi was at least 80%. Besides, in series [2], the inhibition of growth at 20 ppm is at least 80%. Besides, the pest or weed control at 200 ppm in series [3] is at least 80%.

For `CCON=C(C)CNC(=O)c1ccc(-c2noc(C(F)(F)F)n2)cc1F` [Compound 1.158, N-(2-ethoxyiminopropyl)-2-fluoro-4-[5-(trifluoromethyl)-1,2,4-oxadiazol-3-yl]benzamide], the melting point is 120 to 122 °C. The pest or weed control at 200 ppm in series [1] was at least 80%. For the same molecule, the pest or weed control at 200 ppm with Phakopsora pachyrhizi was at least 80%. Moreover, the inhibition of growth at 20 ppm in series [2] is at least 80%. For the same molecule, the pest or weed control at 200 ppm in series [3] was at least 80%.

`CON=CC(C)NC(=O)c1ccc(-c2noc(C(F)(F)F)n2)c(F)c1` (stereo not drawn) [Compound 1.159, 3-fluoro-N-(2-methoxyimino-1-methyl-ethyl)-4-[5-(trifluoromethyl)-1,2,4-oxadiazol-3-yl]benzamide] showed a melting point of 119 to 121 °C. Also, in series [1], the pest or weed control at 200 ppm is at least 80%. For the same molecule, the pest or weed control at 200 ppm in the series on Phakopsora pachyrhizi was at least 80%. In addition, the inhibition of growth at 20 ppm in series [2] was at least 80%. The pest or weed control at 200 ppm in series [3] is at least 80%.

The molecule `CON=CCCNC(=O)c1ccc(-c2noc(C(F)(F)F)n2)c(F)c1` [Compound 1.160, 3-fluoro-N-(3-methoxyiminopropyl)-4-[5-(trifluoromethyl)-1,2,4-oxadiazol-3-yl]benzamide] gave a melting point of 103 to 108 °C. Further, the pest or weed control at 200 ppm in series [1] was at least 80%. The pest or weed control at 200 ppm in the series with Phakopsora pachyrhizi was at least 80%. For the same molecule, in series [2], the inhibition of growth at 20 ppm is at least 80%. Moreover, the pest or weed control at 200 ppm in series [3] was at least 80%.

`CCON=CCCNC(=O)c1ccc(-c2noc(C(F)(F)F)n2)c(F)c1` [Compound 1.161, N-(3-ethoxyiminopropyl)-3-fluoro-4-[5-(trifluoromethyl)-1,2,4-oxadiazol-3-yl]benzamide] returned a melting point of 108 to 110 °C. In addition, in series [1], the pest or weed control at 200 ppm was at least 80%. Besides, in the series on Phakopsora pachyrhizi, the pest or weed control at 200 ppm is at least 80%. In addition, the inhibition of growth at 20 ppm in series [2] is at least 80%. The pest or weed control at 200 ppm in series [3] was at least 80%.

On to `CCON=CCCNC(=O)c1ccc(-c2noc(C(F)(F)F)n2)cc1F` [Compound 1.162, N-(3-ethoxyiminopropyl)-2-fluoro-4-[5-(trifluoromethyl)-1,2,4-oxadiazol-3-yl]benzamide], for which the melting point lay in the range of 97 to 99 °C. The pest or weed control at 200 ppm in series [1] was at least 80%. Further, in the series on Phakopsora pachyrhizi, the pest or weed control at 200 ppm is at least 80%. For the same molecule, the inhibition of growth at 20 ppm in series [2] is at least 80%. Further, in series [3], the pest or weed control at 200 ppm is at least 80%.

Molecule `CON=CCCNC(=O)c1ccc(-c2noc(C(F)(F)F)n2)cc1F` [Compound 1.163, 2-fluoro-N-(3-methoxyimino-propyl)-4-[5-(trifluoromethyl)-1,2,4-oxadiazol-3-yl]benzamide] gave a melting point of 98 to 100 °C. Also, in series [1], the pest or weed control at 200 ppm was at least 80%. The pest or weed control at 200 ppm in the series with Phakopsora pachyrhizi was at least 80%. Besides, the inhibition of growth at 20 ppm in series [2] was at least 80%. In addition, the pest or weed control at 200 ppm in series [3] was at least 80%.

Molecule `CON=C(C)CNC(=O)c1ccc(-c2noc(C(F)(F)F)n2)c(F)c1` [Compound 1.164, 3-fluoro-N-(2-methoxyimino-propyl)-4-[5-(trifluoromethyl)-1,2,4-oxadiazol-3-yl]benzamide] gave a melting point of 131 to 134 °C. Moreover, in series [1], the pest or weed control at 200 ppm was at least 80%. Further, in the series on Phakopsora pachyrhizi, the pest or weed control at 200 ppm was at least 80%. Also, the inhibition of growth at 20 ppm in series [2] was at least 80%. The pest or weed control at 200 ppm in series [3] is at least 80%.

As to `CCON=C(C)CNC(=O)c1ccc(-c2noc(C(F)(F)F)n2)c(F)c1` [Compound 1.165, N-(2-ethoxyiminopropyl)-3-fluoro-4-[5-(trifluoromethyl)-1,2,4-oxadiazol-3-yl]benzamide], the melting point lay in the range of 120 to 124 °C. In addition, the pest or weed control at 200 ppm in series [1] was at least 80%. In addition, in the series with Phakopsora pachyrhizi, the pest or weed control at 200 ppm is at least 80%. Also, the inhibition of growth at 20 ppm in series [2] is at least 80%. The pest or weed control at 200 ppm in series [3] is at least 80%.

As to `CON=CCNC(=O)c1ccc(-c2noc(C(F)(F)F)n2)c(F)c1` [Compound 1.166, 3-fluoro-N-(2-methoxyimino-ethyl)-4-[5-(trifluoromethyl)-1,2,4-oxadiazol-3-yl]benzamide], the melting point is 120 to 122 °C. Also, the pest or weed control at 200 ppm in series [1] is at least 80%. Besides, in the series on Phakopsora pachyrhizi, the pest or weed control at 200 ppm was at least 80%. The inhibition of growth at 20 ppm in series [2] was at least 80%. Moreover, the pest or weed control at 200 ppm in series [3] was at least 80%.

In the case of `C#CCO/N=C/CCNC(=O)c1ccc(-c2noc(C(F)(F)F)n2)cc1` [Compound 1.167, N-[(3E)-3-prop-2-ynoxyiminopropyl]-4-[5-(trifluoromethyl)-1,2,4-oxadiazol-3-yl]benzamide], the melting point was 89 to 91 °C. Further, the pest or weed control at 200 ppm in series [1] was at least 80%. Further, in the series with Phakopsora pachyrhizi, the pest or weed control at 200 ppm was at least 80%. Also, in series [2], the inhibition of growth at 20 ppm is at least 80%. In series [3], the pest or weed control at 200 ppm is at least 80%.

Take `CC(C)ON=CCCNC(=O)c1ccc(-c2noc(C(F)(F)F)n2)cc1` [Compound 1.168, N-(3-isopropoxyimino-propyl)-4-[5-(trifluoromethyl)-1,2,4-oxadiazol-3-yl]benzamide]: the melting point fell in the range of 122 to 124 °C. Besides, the pest or weed control at 200 ppm in series [1] is at least 80%. In addition, the pest or weed control at 200 ppm in the series with Phakopsora pachyrhizi was at least 80%. Besides, the inhibition of growth at 20 ppm in series [2] was at least 80%. Moreover, the pest or weed control at 200 ppm in series [3] was at least 80%.

The values are drawn from patent US11192867B2, “Microbiocidal oxadiazole derivatives” (SYNGENTA PARTICIPATIONS AG, priority 2016, dated 2021).
